Series [1] has as its system HEK293. Nature of the series: Induction of apoptosis in HEK293 cells assessed as increase in cleaved PARP level at 0.0195 to 10 uM incubated for 24 hrs by immunoblot analysis. The series is classed as toxicity, cell-based. The settings on record: human, hek293, 24 h, dose 0.0195-10 µM. On the technique in general: In western blotting, separated proteins are transferred to a membrane and probed.

The subject of series [2] is MDA-MB-231. The experiment in a line: Antiproliferative activity against human MDA-MB-231 cells assessed as inhibition of cell growth incubated for 72 hrs by CellTiter-Glo luminescent cell viability assay. The settings on record: MDA-MB-231, 72 h. Format: functional, cell-based. For orientation: Cellular ATP, detected with luciferase, serves as a proxy for viable cell number.

The target of series [3] is Glycogen synthase kinase-3 beta (Homo sapiens, UniProt P49841). The experiment in a line: Inhibition of GSK3beta (unknown origin).
Chain of Glycogen synthase kinase-3 beta (P49841 whole entry): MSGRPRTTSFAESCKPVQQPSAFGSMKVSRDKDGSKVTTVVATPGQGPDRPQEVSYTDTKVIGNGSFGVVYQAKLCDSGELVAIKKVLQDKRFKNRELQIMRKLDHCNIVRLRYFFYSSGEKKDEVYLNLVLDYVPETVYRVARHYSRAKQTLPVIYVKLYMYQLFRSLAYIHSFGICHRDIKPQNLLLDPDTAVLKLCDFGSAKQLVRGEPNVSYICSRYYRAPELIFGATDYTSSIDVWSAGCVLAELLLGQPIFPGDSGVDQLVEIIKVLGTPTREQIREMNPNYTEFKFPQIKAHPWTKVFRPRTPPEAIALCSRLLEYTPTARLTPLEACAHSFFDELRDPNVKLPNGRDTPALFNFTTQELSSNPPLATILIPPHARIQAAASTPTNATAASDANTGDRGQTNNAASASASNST
The target of series [4] is N-lysine methyltransferase SMYD2 (Homo sapiens, UniProt Q9NRG4). The experiment in a line: Inhibition of SMYD2 (unknown origin) using 3H-SAM as substrate incubated for 1 hr by filter binding method.
Chain of N-lysine methyltransferase SMYD2 (Q9NRG4 whole entry): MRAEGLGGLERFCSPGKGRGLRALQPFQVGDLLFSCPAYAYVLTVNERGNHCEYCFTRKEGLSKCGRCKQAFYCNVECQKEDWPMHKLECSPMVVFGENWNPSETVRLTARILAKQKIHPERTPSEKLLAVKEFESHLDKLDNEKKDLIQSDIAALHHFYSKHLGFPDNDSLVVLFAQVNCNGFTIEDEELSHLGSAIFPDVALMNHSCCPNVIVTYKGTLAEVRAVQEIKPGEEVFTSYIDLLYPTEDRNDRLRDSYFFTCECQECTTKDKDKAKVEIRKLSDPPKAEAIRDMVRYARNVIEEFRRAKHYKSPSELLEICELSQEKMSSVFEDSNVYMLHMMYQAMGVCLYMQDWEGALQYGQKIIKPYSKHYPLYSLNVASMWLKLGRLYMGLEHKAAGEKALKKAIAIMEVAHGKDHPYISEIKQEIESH
The nature of series [5]: Drug metabolism in liver microsomes (unknown origin) assessed as M+18 metabolite formation by LC-MS/MS analysis. Format: ADME, Microsome. A general note: Liver microsomes are vesicles of endoplasmic reticulum, rich in cytochrome P450 enzymes.
Series [6] has as its system Ca-Ski. The experiment in a line: cells. The settings on record: Homo sapiens, 72 h. The series is classed as functional, cell-based.
Description: Antiproliferative activity against human Ca-Ski cells assessed as inhibition of cell growth incubated for 72 hrs by CellTiter-Glo luminescent cell viability assay
Series [7] relates to MDA-MB-453. Nature of the series: Antitumor activity against human MDA-MB-453 cells xenografted in BALB/c nude mouse assessed as tumor growth inhibition rate at 40 mg/kg, ip measured after 15 days relative to control. Format: functional. The note with it: MDA-MB-453, 360 h, time 15 day, read-out: TGI.
Series [8] deals with MDA-MB-453. Nature of the series: cells. Format: functional, cell-based. The note with it: Homo sapiens, MDA-MB-453, 72 h.
Description: Antiproliferative activity against human MDA-MB-453 cells assessed as inhibition of cell growth incubated for 72 hrs by CellTiter-Glo luminescent cell viability assay
Series [9] can be described thus: Drug uptake in ICR mouse plasma assessed as time required to reach higher drug level at 40 mg/kg, ip administered as vehicle 1 as DMSO/Cremophor EL/ PEG400/ DDW formulation measured upto 1440 mins by HPLC analysis. The series is classed as ADME, organism-based.
Series [10] in a line: Cmax in ICR mouse at 40 mg/kg, ip administered as vehicle 2 as corn oil suspension measured upto 1440 mins by LC-MS/MS analysis. The series is classed as ADME, organism-based. Further details: time < 1440 min, dose 40 mg/kg, route ip. The settings on record: in vivo.
Series [11] is described as follows: AUCinfinity in ICR mouse at 40 mg/kg, ip administered as vehicle 2 as corn oil suspension measured upto 1440 mins by LC-MS/MS analysis. Format: ADME, organism-based. The settings on record: in vivo. Also on record: time < 1440 min, dose 40 mg/kg, route ip.
Series [12] in a line: AUClast in ICR mouse at 40 mg/kg, ip administered as vehicle 2 as corn oil suspension measured upto 1440 mins by LC-MS/MS analysis. The series is classed as ADME, organism-based. Further details: dose 40 mg/kg, time < 1440 min, route ip. The note with it: in vivo.
Series [13] relates to MDA-MB-453. Nature of the series: Antitumor activity against human MDA-MB-453 cells xenografted in BALB/c nude mouse assessed as reduction in tumor volume at 40 mg/kg, ip measured every 3 days for 11 days by caliper method (reference value: 168 +/- 16 mm3). The series is classed as functional. The note with it: time 11 day.
Series [14] can be described thus: Terminal half life in ICR mouse at 40 mg/kg, ip administered as vehicle 2 as corn oil suspension measured upto 1440 mins by LC-MS/MS analysis. The series is classed as ADME, organism-based. The note with it: in vivo, read-out: beta t1/2.
Series [15] relates to MDA-MB-453. The experiment in a line: Antitumor activity against human MDA-MB-453 cells xenografted in BALB/c nude mouse assessed as reduction in tumor volume at 40 mg/kg, ip measured on day 1 by caliper method (reference value: 137 +/- 10 mm3). The series is classed as functional. The settings on record: time 1 day.
Series [16] is described as follows: Metabolic stability in mouse liver microsomes assessed as parent compound remaining at 5 uM preincubated for 5 mins with NADPH followed by compound addition and measured after 15 mins by LC-MS/MS analysis. The series is classed as ADME, Microsome. The note with it: read-out: Stability.
Series [17] can be described thus: Drug concentration in ICR mouse plasma at 40 mg/kg, ip administered as vehicle 2 as corn oil suspension measured upto 1440 mins by HPLC analysis. The series is classed as ADME, organism-based.
Series [18] is described as follows: AUCinfinity in ICR mouse at 40 mg/kg, ip administered as vehicle 1 as DMSO/Cremophor EL/ PEG400/ DDW formulation measured upto 1440 mins by LC-MS/MS analysis. Format: ADME, organism-based. Also on record: dose 40 mg/kg, time < 1440 min, route ip. The note with it: in vivo.
A short description of series [19]: Drug metabolism in liver microsomes (unknown origin) assessed as M-56 metabolite formation by LC-MS/MS analysis. Format: ADME, Microsome.
Series [20] can be described thus: AUClast in ICR mouse at 40 mg/kg, ip administered as vehicle 1 as DMSO/Cremophor EL/ PEG400/ DDW formulation measured upto 1440 mins by LC-MS/MS analysis. Format: ADME, organism-based. Further details: time < 1440 min, dose 40 mg/kg, route ip. The note with it: in vivo.
Series [21] can be described thus: Terminal half life in ICR mouse at 40 mg/kg, ip administered as vehicle 1 as DMSO/Cremophor EL/ PEG400/ DDW formulation measured upto 1440 mins by LC-MS/MS analysis. The series is classed as ADME, organism-based. The note with it: in vivo, read-out: beta t1/2.
Series [22] can be described thus: Tmax in ICR mouse at 40 mg/kg, ip administered as vehicle 2 as corn oil suspension measured upto 1440 mins by LC-MS/MS analysis. The series is classed as ADME, organism-based. The note with it: in vivo.
The test system of series [23] is MDA-MB-453. Nature of the series: Antitumor activity against human MDA-MB-453 cells xenografted in BALB/c nude mouse assessed as reduction in tumor volume at 40 mg/kg, ip measured every 3 days for 15 days by caliper method (reference value: 177 +/- 19 mm3). Format: functional. The settings on record: time 15 day.
Series [24] has as its system MDA-MB-453. Nature of the series: Antitumor activity against human MDA-MB-453 cells xenografted in ip dosed BALB/c nude mouse assessed as reduction in tumor growth measured after 15 days. The series is classed as functional. The note with it: MDA-MB-453, 360 h, time 15 day.
The nature of series [25]: Toxicity in […] xenografted with human MDA-MB-453 cells assessed as body weight loss at 40 mg/kg, ip administered as DMSO/Cremophor EL/ PEG400/ DDW formulation and measured after 4 days. Format: organism-based. The note with it: in vivo, 96 h, time 4 day.
Series [26] deals with MDA-MB-453. The experiment in a line: Antitumor activity against human MDA-MB-453 cells xenografted in BALB/c nude mouse assessed as reduction in tumor volume at 40 mg/kg, ip measured every 3 days for 8 days by caliper method (reference value: 152+/- 11 mm3). The settings on record: time 8 day. Format: functional.
Series [27] is described as follows: Cmax in ICR mouse at 40 mg/kg, ip administered as vehicle 1 as DMSO/Cremophor EL/ PEG400/ DDW formulation measured upto 1440 mins by LC-MS/MS analysis. The series is classed as ADME, organism-based. Further details: dose 40 mg/kg, time < 1440 min, route ip. The settings on record: in vivo.
In series [28] the test system is HEK293. Nature of the series: Induction of apoptosis in HEK293 cells assessed as increase in cleaved PARP level incubated for 24 hrs by immunoblot analysis. The series is classed as toxicity, cell-based. The settings on record: human, hek293, 24 h, DDE = dose-dependent effect, dose 0.0195-10 µM.
Series [29] is described as follows: Drug metabolism in liver microsomes (unknown origin) assessed as M-254 metabolite formation by LC-MS/MS analysis. Format: ADME, Microsome.
Series [30] is described as follows: Tmax in ICR mouse at 40 mg/kg, ip administered as vehicle 1 as DMSO/Cremophor EL/ PEG400/ DDW formulation measured upto 1440 mins by LC-MS/MS analysis. The note with it: in vivo. Format: ADME, organism-based.
In series [31] the test system is MDA-MB-453. The experiment in a line: Antitumor activity against human MDA-MB-453 cells xenografted in BALB/c nude mouse assessed as reduction in tumor volume at 40 mg/kg, ip measured on day 4 by caliper method (reference value: 145 +/- 11 mm3). Format: functional. The note with it: time 4 day.
Series [32] in a line: Drug metabolism in liver microsomes (unknown origin) assessed as M-78 metabolite formation by LC-MS/MS analysis. Format: ADME, Microsome.
In series [33] the test system is MDA-MB-453. The experiment in a line: Antitumor activity against human MDA-MB-453 cells xenografted in BALB/c nude mouse assessed as reduction in tumor weight at 40 mg/kg, ip measured after 15 days (reference value: 0.038 +/- 0.02 g). Format: functional. The note with it: time 15 day.
Series [34] in a line: Drug metabolism in liver microsomes (unknown origin) assessed as M-115 metabolite formation by LC-MS/MS analysis. The series is classed as ADME, Microsome.

The values that follow come from ChEMBL document CHEMBL5143511, “Positioning of an unprecedented 1,5-oxaza spiroquinone scaffold into SMYD2 inhibitors in epigenetic space” (Eur J Med Chem, 2022).

pIC50: −log10 of the molar value.

Turning to `O=C1COc2c(CCNCCN(C(=O)CCNCCc3ccc(Cl)c(Cl)c3)C3CCCCC3)ccc(O)c2N1`, the Activity entry in series [1] is “Non-Toxic”. In series [2], the pIC50 (usually the IC50 on a negative log10 scale, so that one unit is a factor of ten) was 4.88.

Turning to `O=C1C=CC2(C=C1)OCC(Cc1cn(-c3cccc(Cc4ccccc4)c3)nn1)C(=O)N2c1ccccc1` (stereo unspecified), the pIC50 in [3] is 5.82; in series [4], 5.51.

`CN1C(=O)C(CCO[Si](c2ccccc2)(c2ccccc2)C(C)(C)C)COC12C=CC(=O)C=C2` (stereo unspecified): the Drug metabolism entry in [5], in [19], in [29], in series [32] and in series [34] was “Metabolite_Detected” in each case. For the same compound, the pIC50 in [6] is 6.75; in series [8], 7.93; in series [2], 7.07; in series [4], 6.17. For the same compound, the inhibition in vivo at 40 mg/kg in series [7] came to 77.7%. In addition, the results for the Tmax in [9], in series [22] and in series [30] were 8 h, 1.17 h and 0.25 h, respectively. Further, the Cmax (usually the maximum level reached in the sampled fluid or tissue) in series [10] was determined as 301 ng/mL; in series [27], 1400 ng/mL. In addition, the figures for the AUC(0-inf) in series [11] and in series [18] were 3130 ng·h/mL and 6050 ng·h/mL, respectively. In addition, the AUC(0-t) (commonly exposure summed from dosing to a finite time, without extrapolation to infinity) at 24 h in [12] was 1560 ng·h/mL; in [20], 5810 ng·h/mL. Further, the Activity in series [13] was 87 mm3; in [15], 136 mm3; in series [23], 67 mm3; in series [25], “Toxic”; in series [26], 105 mm3; in [28] it was “Dde”. The Activity came out at 126 mm3 in [31] and 0.009 g in series [33]. Further, the half-life in series [14] is 15.9 h; in [21] it was 4.83 h. In addition, the remaining at 0.25 h, 5 µM in [16] worked out at 1.22%. Further, the concentration at 24 h in [17] was 279 ng/mL. In addition, the 50% effective dose (ED50) – broadly, the midpoint of the dose-response relation – in [24] was under 40 mg/kg.
